Each structure is given as a SMILES string. pIC50: −log10 of the molar value. “Also recorded” adds a separate entry of the source. Like-named read-outs stand apart in the source and are kept apart here.

One assay concerns Cryptosporidium parvum. In words: In vitro anti-Cryptosporidium effect in HCT-8 cells (immunofluorescence assay). In kind it is cell-based. The settings on record: for pIC50: Cryptosporidium parvum, HCT-8 cells. How it is done:
In vitro testing of the anti-Cryptosporidium effect of CpLDH inhibitors. HCT-8 cells were cultured in supplemented RPMI-1640 medium in 96-well plates. When the cells were confluent, old medium was replaced with fresh medium. To one set of wells, varying concentrations of recombinant CpLDH inhibitors (reconstituted in DMSO and diluted in RPMI medium) were added, while another set was left without inhibitors. Paromomycin was used as a positive control drug reconstituted in distilled sterile water. Then, 4×10^4 freshly excysted sporozoites were added to each well and incubated at 37° C. with 5% CO2. After 2 h incubation, varying concentrations of CpLDH inhibitors were added to the set of infected cells that were not treated initially. Control infected cells without inhibitors, but with added DMSO volumes equivalent to those used in the wells with inhibitors, were included. The cells were maintained in culture for a total of either 48 h or 72 h and processed for immunofluorescence assay as previously described (Int. J. Parasitol. 2017; 47(13), 867-874). Briefly, medium was decanted, and the cells fixed with methanol-acetic acid (9:1) for 2 minutes at room temperature. The cells were rehydrated and permeabilized by two successive washes with buffer (0.1% Triton X-100, 0.35 M NaCl, 0.13 M Tris-base, pH 7.6) and blocked with 5% normal goat serum, followed by staining with antibody to C. parvum (SporoGlo; Waterborn, Inc.) overnight at 4° C. The stained cells were washed twice with PBS, followed by water, and then imaged with an inverted fluorescence microscope. Fluorescence quantification was done using ImageJ version 1.37v software (NIH). Assays were performed in triplicate and repeated at least thrice.

The test system of another assay is C. parvum. In words: Histopathology of distal small intestine of C. parvum infected mice. It is filed as in vivo, Cryptosporidium parvum. Conditions: lower small intestine, H&E, NSC158011 400 mg/kg, NSC10447 250, 500 or 1000 mg/kg, paromomycin 100 mg/kg. How it is done:
In vivo testing of the anti-Cryptosporidium effect of CpLDH inhibitors. Gamma interferon knockout mice (B6.129S7-Ifng), 8 weeks of age, were purchased from Charles River, USA. The care and use of the mice was done following the guidelines of protocol number 17024 approved by the University of Illinois at Urbana-Champaign, USA. The animals were allowed to acclimatize for 1 week before experiments commenced. Stock solutions of recombinant CpLDH inhibitors reconstituted in DMSO were diluted in sterile distilled water to reduce the final amount of DMSO in the solution to less than 1% (v/v) before administering them to mice. Prior to testing the anti-Cryptosporidium effect of the inhibitors in mice, the tolerability of each inhibitor was tested by oral gavage using varying dosages (100-2000 mg/kg body weight) of each inhibitor in groups of mice (three mice for each dose) daily for 7 days. Mice were observed daily for signs of toxicity including changes from normal physical activity, respiration, body temperature, feeding, posture, fur condition or occurrence of death. […] The subsequent dosages of NSC10447 used in the mice infection assays were 250, 500 and 1000 mg/kg mouse body weight, while the NSC158011 dosages used were 100, 200 and 400 mg/kg mouse body weight. Mice were allocated to groups as follows: “Infected plus inhibitor treatment”; “Infected minus inhibitor treatment”; “Uninfected minus inhibitor treatment” and “Infected plus paromomycin treatment”. Each group contained at least three mice. Each mouse in the infection groups received 5,000 C. parvum oocysts (resuspended in 50 μl of PBS) by oral gavage. Mice were housed individually in cages lined with sterile gauze as bedding. […] An equivalent volume of PBS containing a cocktail of penicillin (100 units/ml), streptomycin (100 μg/ml), chloramphenicol (34 μg/ml) and amphotericin (0.25 μg/ml) was added to the fecal samples and stored at 4° C. until use for quantification of C. parvum genomic DNA load. […]

What is called pIC50 is the IC50 on a negative log10 scale, so that one unit is a factor of ten. Regarding `O=C1c2ccccc2C(=O)c2c(O)c(O)cc(O)c21` [NSC10447], the “effect on C. parvum proliferation in initial screen” value with Cryptosporidium parvum (48 h post-infection, concentrations at least 50% lower than cytotoxicity IC50) is listed as “significantly (P<0.05) inhibit C. parvum proliferation”. Moreover, the pIC50 in the assay with Cryptosporidium parvum (48 h, compound added at the time of infection, read-out: IC50, inhibition of C. parvum growth at 48 h p.i.) is 4.14; with Cryptosporidium parvum (72 h, compound added at the time of infection, read-out: IC50, inhibition of C. parvum growth at 72 h p.i.) it was 4.08; in the assay with Cryptosporidium parvum (compound added 2 h post-infection, read-out: IC50, inhibition of C. parvum growth at 48 h p.i. (2 h)), 4.10; in the assay on Cryptosporidium parvum (compound added 2 h post-infection, read-out: IC50, inhibition of C. parvum growth at 72 h p.i. (2 h)) it was 4.02. In addition, the “histopathology of intestinal epithelium and villi” value with C. parvum was “prevented villous atrophy and maintained the integrity of the intestinal mucosa; also recorded: intact intestinal epithelium with prominent villi”.

The values above are taken from patent US20250387359A1, “COMPOUNDS AND METHODS FOR THE TREATMENT OF PARASITIC INFECTIONS” (THE BOARD OF TRUSTEES OF THE UNIVERSITY OF ILLINOIS, priority 2019, published 2025).
